A short description of data set [1]: Michaelis-Menten constant in polyclonal antibody reactions. In kind it is ADME.
The nature of data set [2]: Vmax in polyclonal antibody reactions. Format: ADME.

Molecules are shown by their SMILES.

Turning to `C=C/C=C/CCOC(=O)CCC(=O)OCc1ccccc1`, the Km (usually the concentration of substrate that gives half-maximal velocity) in data set [1] was 96 µM. Moreover, in data set [2], the Vmax (as a rule, the rate approached at saturating substrate) is 0.98 µM/min.

The record behind these values is ChEMBL document CHEMBL1130461, “Polyclonal catalytic antibody for hetero-cycloaddition of hepta-1,3-diene with ethyl glyoxylate an approach to the synthesis of 2-nonulosonic acid analogs” (Bioorg Med Chem Lett, 1997).
